The record followed here is BindingDB's records for doi:10.1021/jm050513m (The University of Texas At Houston, 2005).

“And” between values parts separate entries of the source, which are not always exact repeats. Identical values can stand only once. Numbered stars: 1 amine (or outer) side, 2 acyl side, 3 side chain; on linkers, the order of the positions; unused ones are H or OH. Square brackets hold non-standard residues; d marks the D form. Peptide text beside a SMILES is read from it. * marks the point of attachment. ξ: configuration not given here. pY = N[C@@H](Cc1ccc(OP(=O)(O)O)cc1)C(=O)O; X2 = O=C([C@H]1CCCN([*:1])C1)[*:2]; Hyp = O=C(O)[C@@H]1C[C@@H](O)CN1; Thr(3ξ) = CC(O)[C@H](N)C(=O)O; Pyrrolidide = C1CCN(*)C1; Cbz = O=C(OCc1ccccc1)*

This test addresses Signal transducer and activator of transcription 3 (Mus musculus, UniProt P42227). The experiment in a line: Fluorescence Polarization Assay. As to the method:
Fluorescence polarization (FP) binding assay is utilizing the intrinsic property of the fluorescent probe, which will have low polarization value when free in solution. On binding to a target, the polarization of the probe will increase. Reaction mixtures of full length STAT3 alpha and the probe were placed in wells of a 96-well microtiter plate. The test peptide solution was added to each well. Fluorescence polarization was then read in a Tecan Polarian plate reader. The IC50 values were obtained from nonlinear regression analysis in the one-site competition mode. Peptides were assayed three times using three separate Stat3-probe preparations. IC50 values are reported as the mean of three IC50 values +/- the standard deviation.
In general terms: Fluorescence polarisation rises when a labelled molecule tumbles more slowly, as on binding a larger partner.

Signal transducer and activator of transcription 3, sequence (P42227 whole entry): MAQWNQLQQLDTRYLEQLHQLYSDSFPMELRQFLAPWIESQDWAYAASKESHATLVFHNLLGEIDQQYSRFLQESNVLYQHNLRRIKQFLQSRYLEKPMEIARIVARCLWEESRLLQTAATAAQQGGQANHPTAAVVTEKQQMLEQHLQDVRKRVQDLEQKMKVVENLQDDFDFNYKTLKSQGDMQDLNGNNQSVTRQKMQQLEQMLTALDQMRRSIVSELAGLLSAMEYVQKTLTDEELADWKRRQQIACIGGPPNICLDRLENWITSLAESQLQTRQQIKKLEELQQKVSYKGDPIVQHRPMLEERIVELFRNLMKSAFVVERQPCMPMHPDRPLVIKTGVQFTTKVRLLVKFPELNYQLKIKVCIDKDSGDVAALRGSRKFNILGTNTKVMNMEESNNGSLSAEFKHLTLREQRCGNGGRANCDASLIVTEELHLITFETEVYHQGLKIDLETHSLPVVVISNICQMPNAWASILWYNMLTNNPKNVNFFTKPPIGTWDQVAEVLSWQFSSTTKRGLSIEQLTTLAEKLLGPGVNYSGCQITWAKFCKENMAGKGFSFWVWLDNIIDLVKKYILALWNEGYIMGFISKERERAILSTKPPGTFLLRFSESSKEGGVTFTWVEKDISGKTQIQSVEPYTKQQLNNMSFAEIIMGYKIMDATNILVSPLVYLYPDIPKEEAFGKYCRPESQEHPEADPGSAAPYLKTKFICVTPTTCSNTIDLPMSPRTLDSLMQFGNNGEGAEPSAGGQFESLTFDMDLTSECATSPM

The IC50 is the midpoint of a concentration-inhibition curve. A high value points to weaker potency in that assay. With `CC(=O)N[C@@H](Cc1ccc(OP(=O)(O)O)cc1)C(=O)N[C@@H](CC(C)C)C(=O)N1CCC[C@H]1C(=O)N[C@@H](CCC(N)=O)C(=O)N1CCCC1` [4-[(2S)-2-{[(2S)-1-[(2S)-2-{[(2S)-4-carbamoyl-1-oxo-1-(pyrrolidin-1-yl)butan-2-yl]carbamoyl}pyrrolidin-1-yl]-4-methyl-1-oxopentan-2-yl]carbamoyl}-2-acetamidoethyl]phenoxyphosphonic acid] (Ac-[pY]LPQ-Pyrrolidide), the concentration for half-maximal inhibition (IC50) is 2.11 µM. In the case of `CC(=O)N[C@@H](Cc1ccc(OP(=O)(O)O)cc1)C(=O)N[C@@H](CC(C)C)C(=O)N1C[C@H](O)C[C@H]1C(=O)N[C@@H](CCC(N)=O)C(=O)N[C@H](C(N)=O)C(C)O` (stereo partly drawn) [4-[(2S)-2-{[(2S)-1-[(2S,4R)-2-{[(1S)-3-carbamoyl-1-{[(1S,2S)-1-carbamoyl-2-hydroxypropyl]carbamoyl}propyl]carbamoyl}-4-hydroxypyrrolidin-1-yl]-4-methyl-1-oxopentan-2-yl]carbamoyl}-2-acetamidoethyl]phenoxyphosphonic acid] (Ac-[pY]L[Hyp]Q[Thr(3ξ)]-NH2), the IC50 (pH 7.5, 22 °C) is 0.484 µM. `CC(C)C[C@H](NC(=O)[C@H](Cc1ccc(OP(=O)(O)O)cc1)NC(=O)OCc1ccccc1)C(=O)N1CCC[C@H]1C(=O)N[C@@H](CCC(N)=O)C(=O)N[C@H](C(N)=O)C(C)O` (stereo partly drawn) [4-[(2S)-2-{[(benzyloxy)carbonyl]amino}-2-{[(2S)-1-[(2S)-2-{[(1S)-3-carbamoyl-1-{[(1S,2S)-1-carbamoyl-2-hydroxypropyl]carbamoyl}propyl]carbamoyl}pyrrolidin-1-yl]-4-methyl-1-oxopentan-2-yl]carbamoyl}ethyl]phenoxyphosphonic acid] (Cbz-[pY]LPQ[Thr(3ξ)]-NH2): 0.75 µM corresponded to half-maximal inhibition (pH 7.5, 22 °C) (IC50). Still for that read-out and setting: next, `CC(=O)N[C@@H](Cc1ccc(OP(=O)(O)O)cc1)C(=O)N[C@@H](CC(C)C)C(=O)N1CCC[C@H](C(=O)N[C@@H](CCC(N)=O)C(=O)N[C@H](C(N)=O)C(C)O)C1` (stereo partly drawn) [23, Ac-pTyr-Leu-Nip-Gln-Thr-NH2-2] (Ac-[pY]L[X2]Q[Thr(3ξ)]-NH2): 38.6 µM and 33.1 µM. Turning to `CC(=O)N[C@@H](Cc1ccc(OP(=O)(O)O)cc1)C(=O)N[C@@H](CC(C)C)C(=O)N1CCC[C@H]1C(=O)N[C@@H](CCC(N)=O)C(=O)O` [(2S)-4-carbamoyl-2-{[(2S)-1-[(2S)-2-[(2S)-2-acetamido-3-[4-(phosphonooxy)phenyl]propanamido]-4-methylpentanoyl]pyrrolidin-2-yl]formamido}butanoic acid] (Ac-[pY]LPQ-OH), the IC50 was found to be 0.748 µM.
